Drawing on PubChem BioAssay AID651769 (The Scripps Research Institute Molecular Screening Center, 2012), this text covers EC50 for 28 compounds.

By EC50 is commonly meant the concentration at which the effect is half-maximal.

Active and inactive are the calls of the source. No rule for the calls is given here.

For this test, the target named is Mu-type opioid receptor (Homo sapiens) (UniProt P35372). The experiment in a line: OPRM1 activation in cells, late-stage follow-up, counter-screen for OPRM1-OPRD1 heterodimer activator project, cell-based, luminescence, dose response, set 2 (AID 651769). The following applies: OPRM1 cell-based luminescence activation counterscreen.
Mu-type opioid receptor (Homo sapiens), sequence (P35372 whole entry, looked up): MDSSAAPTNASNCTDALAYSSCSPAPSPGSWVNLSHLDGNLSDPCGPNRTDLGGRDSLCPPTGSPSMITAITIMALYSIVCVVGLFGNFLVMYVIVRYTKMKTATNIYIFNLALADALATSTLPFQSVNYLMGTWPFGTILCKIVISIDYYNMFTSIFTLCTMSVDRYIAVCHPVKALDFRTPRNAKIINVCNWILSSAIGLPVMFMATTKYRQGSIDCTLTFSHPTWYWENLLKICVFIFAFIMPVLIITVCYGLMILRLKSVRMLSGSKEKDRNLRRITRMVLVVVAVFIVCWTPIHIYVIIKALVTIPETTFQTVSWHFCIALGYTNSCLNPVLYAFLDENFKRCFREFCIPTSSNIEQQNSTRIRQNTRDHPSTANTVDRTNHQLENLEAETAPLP
As to `C=Cc1ccc(C(=O)N2CCC(CCc3ccccc3)(C(=O)OCC)CC2)cc1`, the EC50 was > 50 µM (inactive).

On to `CCOC(=O)C1(Cc2ccccc2)CCCN(Cc2ccc(NC(C)=O)cc2)C1` (stereo not drawn), for which the EC50 was > 50 µM (inactive). Then `CCOC(=O)C1CCN(CCC(=O)Nc2ccc(C)cc2)CC1`, with > 50 µM (inactive); and `CCOC(=O)C1(CCc2ccccc2)CCN(Cc2ccncc2)CC1`, with > 50 µM (inactive); and `CCOC(=O)C1(CCc2ccccc2)CCN(Cc2c(O)cccc2OC)CC1`, with 3.44 µM.

Take `CCOC(=O)C1CCCCN1Cc1ccc(NC(C)=O)cc1` (stereo not drawn): the EC50 is > 50 µM (inactive). Then `CCOC(=O)C1(CCc2ccccc2)CCN(Cc2ccc(O)cc2)CC1`, with > 50 µM (inactive); and `CCOC(=O)C1(Cc2ccccc2C)CCCN(Cc2ccc(NC(C)=O)cc2)C1` (stereo not drawn), with > 50 µM (inactive); and `CCOC(=O)C1(CCOc2ccccc2)CCCN(Cc2ccc(NC(C)=O)cc2)C1` (stereo not drawn), with > 50 µM (inactive). Then `CCOC(=O)C1(CC2CC2)CCN(C(=O)c2ccc(N3CCCCC3)cc2)CC1`, with > 50 µM (inactive); and `CCOC(=O)C1(CCOC)CCCN(Cc2ccc(NC(C)=O)cc2)C1` (stereo not drawn), with > 50 µM (inactive). The same measure for `CCOC(=O)C1(CCOC)CCN(Cc2ccc(N(C)c3ccccc3)cc2)CC1`: > 50 µM (inactive); for `CCOC(=O)C1(Cc2cccc(OC)c2)CCCN(Cc2ccc(NC(C)=O)cc2)C1` (stereo not drawn): > 50 µM (inactive).

As for `C=Cc1ccc(C(=O)N2CCC(CCCc3ccccc3)(C(=O)OCC)CC2)cc1`, the EC50 was > 50 µM (inactive).

In the case of `CCOC(=O)C1CCN(Cc2ccc(NC(C)=O)cc2)CC1`, the EC50 was > 50 µM (inactive). On to `CCOC(=O)C1(Cc2ccccc2Cl)CCN(Cc2ccc(NC(C)=O)cc2)CC1`, for which the EC50 was > 50 µM (inactive). Then `CC(=O)Nc1ccc(CN2CCCC(CO)(CCc3ccccc3)C2)cc1` (stereo not drawn), with > 50 µM (inactive).

`O=C(O)C1CCCCC1C(=O)Nc1ccc(CN2CCCCC2)cc1` (stereo not drawn): the EC50 was > 50 µM (inactive). Then `CCOC(=O)C1(CCc2ccccc2)CCN(Cc2ccc(C#CC(C)(C)O)cc2)CC1`, with > 50 µM (inactive); and `CCOC(=O)C1(CCc2ccccc2)CCN(C(=O)Nc2ccc(C)cc2C)CC1`, with > 50 µM (inactive); and `CCOC(=O)C1(CCc2ccccc2)CCN(Cc2ccc(C(=O)OC)cc2)CC1`, with > 50 µM (inactive). With `CCOC(=O)C1(Cc2ccc(OC)cc2)CCN(C(=O)c2ccc(N(C)C)cc2)CC1`, the EC50 was > 50 µM (inactive). With `CCOC(=O)C1(CC2CC2)CCN(Cc2ccc(NC(C)=O)cc2)CC1`, the EC50 was > 50 µM (inactive). On to `CCOC(=O)C1CCN(Cc2ccc(N(C)C)cc2)CC1`, for which the EC50 is > 50 µM (inactive).

Regarding `CCOC(=O)C1CCN(C(=O)c2ccc(N(C)C)cc2)CC1`, the EC50 is > 50 µM (inactive). The same measure for `CCOC(=O)C1(CCc2ccccc2)CCN(Cc2ccc(OC)cc2)CC1`: 1.92 µM; for `CCOC(=O)C1(CCOC)CCN(Cc2ccc(NC(C)=O)cc2)CC1`: > 50 µM (inactive). The same measure for `CCOC(=O)C1(CCc2ccccc2)CCCN(Cc2ccc(N3CCNC3=O)cc2)C1` (stereo not drawn): > 50 µM (inactive).
